Experimental data taken from patent US20110229531A1, “ANTI-PROTOZOA COMPOUNDS” (priority 2009, published 2011).

System: Acanthamoeba
Experiment: Acanthamoeba growth inhibition, alamarBlue reduction
Format: cell-based, Acanthamoeba castellanii
Description: Furthermore, inhibition was ablated in a dose dependent manner by the addition of histidine to the medium.

SMILES	effect of 3AT on growth in the presence of histidine (10 mM histidine added, 0.98 mM 3-AT, alamarBlue reduction)	IC20 (Acanthamoeba, read-out: IC20 of 3-AT) [µM]	IC50 (Acanthamoeba, absence of histidine, percentage of alamarBlue reduction) [µM]	concentration required to significantly (p<0.05) inhibit A. castellanii growth (in the presence of 1 mM Histidine) [mM]	growth of Acanthamoeba (medium without histidine, inhibition ablated dose dependently by added histidine)	concentration that significantly (p<0.05) inhibited A. castellanii growth (no histidine, compared with untreated control cultures, dose dependent) [mM]	toxicity of histidine to Acanthamoeba (100 mM histidine)
Nc1nc[nH]n1 [3-AT, 3-amino-1,2,4-triazole]	significantly (p<0.05) ablated the effect of 3AT	980	15 to 31	≥ 0.06	inhibits growth	≥ 0.00095	
N[C@@H](Cc1c[nH]cn1)C(=O)O [histidine]							toxic
